# Reference: US7122554B2, “Carboline derivatives” (Lilly Icos LLC., priority 2001, dated 2006)
# Key:
# [1] = biological target: human recombinant PDE5 (Homo sapiens, UniProt O76074); assay: Inhibitory effect on cGMP-PDE (PDE5 IC50, one-step assay); assay type: biochemical; conditions: human recombinant PDE5, 0.15 μM 8-[H3]-cGMP, 30 minutes incubation
# Description: The compounds of structural formula (I) were tested for an ability to inhibit PDE5. The ability of a compound to inhibit PDE5 activity is related to the IC50 value for the compound, i.e., the concentration of inhibitor required for 50% inhibition of enzyme activity. The IC50 value for compounds of structural formula (I) were determined using recombinant human PDE5.
# cGMP-PDE activity of compounds of the present invention was measured using a one-step assay adapted from Wells et al., Biochim. Biophys. Acta, 384, 430 (1975). The reaction medium contained 50 mM Tris-HCl, pH 7.5, 5 mM magnesium acetate, 250 μg/ml 5′-Nucleotidase, 1 mM EGTA, and 0.15 μM 8-[H^3]-cGMP. Unless otherwise indicated, the enzyme used was a human recombinant PDE5 (ICOS Corp., Bothell, Wash.).
# Compounds of the invention were dissolved in DMSO finally present at 2% in the assay.
SMILES,IC50 [1] [nM],melting point [°C]
"O=C(Nc1ccccc1)C(=O)N1CCc2c([nH]c3ccccc23)[C@H]1c1ccc2c(c1)OCO2 [Example 1, (1R)-2-(1-benzo[1,3]dioxol-5-yl-1,3,4,9-tetrahydro-β-carbolin-2-yl)-2-oxo-N-phenylacetamide]",167,–
"S=C(NCc1ccccc1)N1CCc2c([nH]c3ccccc23)C1c1ccc2c(c1)OCO2 (stereo not drawn) [Example 2a, 1-benzo[1,3]dioxol-5-yl-1,3,4,9-tetrahydro-β-caboline-2-carbothioic acid benzylamide]",51,197
"S=C(NCc1ccccc1)N1CCc2c([nH]c3ccccc23)[C@H]1c1ccc2c(c1)OCO2 [Example 2b, (1R)-1-benzo[1,3]dioxol-5-yl-1,3,4,9-tetrahydro-β-carboline-2-carbothioic acid benzylamide]",40,205 to 207
O=C(NCc1ccccc1)N1CCc2c([nH]c3ccccc23)C1c1ccccc1 (centres unmarked) [Example 4],800,–
O=C(Nc1ccccc1)N1CCc2c([nH]c3ccccc23)C1c1ccccc1 (centres unmarked) [Example 5],400,–
O=C(Nc1cccc2ccccc12)N1CCc2c([nH]c3ccccc23)C1c1ccccc1 (centres unmarked) [Example 6],400,–
O=C(NC1CCCCC1)N1CCc2c([nH]c3ccccc23)C1c1ccc2c(c1)OCO2 (centres unmarked) [Example 7],850,–
"C[C@H](NC(=O)N1CCc2c([nH]c3ccccc23)[C@H]1c1ccc2c(c1)OCO2)c1ccccc1 [Example 10, (1R)-benzo[1,3]dioxol-5-yl-1,3,4,9-tetrahydro-β-carboline-2-carboxylic acid (1S)-(phenylethyl)amide]",13,120 to 121
"O=C(NC(=O)N1CCc2c([nH]c3ccccc23)[C@H]1c1ccc2c(c1)OCO2)c1ccccc1 [Example 12, N-((1R)-1-benzo[1,3]dioxol-5-yl-1,3,4,9-tetrahydro-β-carboline-2-carbonyl)benzamide]",49,–
"O=C(OCc1ccccc1)N1CCc2c([nH]c3ccccc23)C1c1ccc2c(c1)OCO2 (stereo not drawn) [Example 15a, 1-benzo[1,3]dioxol-5-yl-1,3,4,9-tetrahydro-β-carboline-2-carboxylic acid benzyl ester]",17,–
"O=C(OCc1ccccc1)N1CCc2c([nH]c3ccccc23)[C@H]1c1ccc2c(c1)OCO2 [Example 15b, (1R)-1-benzo[1,3]dioxol-5-yl-1,3,4,9-tetrahydro-β-carboline-2-carboxylic acid benzyl ester]",9,–
O=C(C=C1CCCCC1)N1CCc2c([nH]c3ccccc23)[C@H]1c1ccc2c(c1)OCO2 [Example 16],209,116 to 118
"O=C(CC(=O)N1CCc2c([nH]c3ccccc23)[C@H]1c1ccc2c(c1)OCO2)c1ccccc1 [Example 17, (1R)-1-(1-benzo[1,3]dioxol-5-yl-1,3,4,9-tetrahydro-β-carbolin-2-yl)-3-phenylpropane-1,3-dione]",29,–
COC(=O)N1CCc2c([nH]c3ccccc23)C1c1ccccc1 (centres unmarked) [Example 19],1,–
COC(=O)CCCC(=O)N1CCc2c([nH]c3ccccc23)C1c1ccccc1 (centres unmarked) [Example 20],1,–
COc1ccc(C2c3[nH]c4ccccc4c3CCN2C(=O)CCCC(=O)O)cc1Cl (centres unmarked) [Example 21],180,–
O=C(O)CCCC(=O)N1CCc2c([nH]c3ccccc23)C1c1ccc2c(c1)OCO2 (centres unmarked) [Example 22],150,–
"S=C(NCc1ccccc1Cl)N1CCc2c([nH]c3ccccc23)[C@H]1c1ccc2c(c1)OCO2 [Example 24, (1R)-benzo[1,3]dioxol-5-yl-1,3,4,9-tetrahydro-β-carboline-2-carbothioic acid 2-chlorobenzylamide]",177,123 to 128

SMILES,IC50 [1] [nM],melting point [°C]
"S=C(NCc1ccc(Cl)cc1Cl)N1CCc2c([nH]c3ccccc23)[C@H]1c1ccc2c(c1)OCO2 [Example 25, (1R)-benzo[1,3]dioxol-5-yl-1,3,4,9-tetrahydro-β-carboline-2-carbothioic acid 2,4-dichlorobenzylamide]",126,124 to 127
Fc1ccccc1CNC(=S)N1CCc2c([nH]c3ccccc23)[C@H]1c1ccc2c(c1)OCO2 [Example 26],40,–
C[C@H](NC(=S)N1CCc2c([nH]c3ccccc23)[C@H]1c1ccc2c(c1)OCO2)c1ccccc1 [Example 27],196,117 to 121
"O=C(O)c1ccc(CNC(=S)N2CCc3c([nH]c4ccccc34)[C@H]2c2ccc3c(c2)OCO3)cc1 [Example 28, (1R)-4-{[(1-benzo[1,3]dioxol-5-yl-1,3,4,9-tetrahydro-β-carboline-2-carbthiolyl)-amino]methyl}benzoic acid]",36,–
"O=C(O)c1cccc(CNC(=S)N2CCc3c([nH]c4ccccc34)[C@H]2c2ccc3c(c2)OCO3)c1 [Example 29, (1R)-3-{[(1-benzo[1,3]dioxol-5-yl-1,3,4,9-tetrahydro-β-carboline-2-carbthiolyl)amino]methyl}benzoic acid]",469,218 to 220
"FC(F)(F)c1cc(NC(=S)N2CCc3c([nH]c4ccccc34)[C@H]2c2ccc3c(c2)OCO3)ccc1Cl [Example 30, (1R)-benzo[1,3]dioxol-5-yl-1,3,4,9-tetrahydro-β-carboline-2-carbothioic acid (4-chloro-3-trifuloromethylphenyl)amide]",83,–
"FC(F)(F)c1ccccc1NC(=S)N1CCc2c([nH]c3ccccc23)[C@H]1c1ccc2c(c1)OCO2 [Example 31, (1R)-benzo[1,3]dioxol-5-yl-1,3,4,9-tetrahydro-β-carboline-2-carbothioic acid (2-trifluoromethylphenyl)amide]",518,–
"S=C(NCc1ccc(Cl)cc1)N1CCc2c([nH]c3ccccc23)[C@H]1c1ccc2c(c1)OCO2 [Example 32, (1R)-benzo[1,3]dioxol-5-yl-1,3,4,9-tetrahydro-β-carboline-2-carbothioic acid 4-chlorobenzylamide]",51,–
"Fc1cccc(CNC(=S)N2CCc3c([nH]c4ccccc34)[C@H]2c2ccc3c(c2)OCO3)c1 [Example 33, (1R)-benzo[1,3]dioxol-5-yl-1,3,4,9-tetrahydro-β-carboline-2-carbothioic acid 3-fluorobenzylamide]",75,179 to 181
"S=C(NCc1ccc(Cl)c(Cl)c1)N1CCc2c([nH]c3ccccc23)[C@H]1c1ccc2c(c1)OCO2 [Example 34, (1R)-benzo[1,3]dioxol-5-yl-1,3,4,9-tetrahydro-β-carboline-2-carbothioic acid 3,4-dichlorobenzylamide]",512,–
"Fc1ccc(CNC(=S)N2CCc3c([nH]c4ccccc34)[C@H]2c2ccc3c(c2)OCO3)cc1 [Example 35, (1R)-benzo[1,3]dioxol-5-yl-1,3,4,9-tetrahydro-β-carboline-2-carbothioic acid 4-fluorobenzylamide]",122,137 to 139
"S=C(NCc1cccc(Cl)c1)N1CCc2c([nH]c3ccccc23)[C@H]1c1ccc2c(c1)OCO2 [Example 36, (1R)-benzo[1,3]dioxol-5-yl-1,3,4,9-tetrahydro-β-carboline-2-carbothioic acid 3-chlorobenzylamide]",494,189 to 191
"Cc1ccc(CNC(=S)N2CCc3c([nH]c4ccccc34)[C@H]2c2ccc3c(c2)OCO3)cc1C [Example 37, (1R)-benzo[1,3]dioxol-5-yl-1,3,4,9-tetrahydro-β-carboline-2-carbothioic acid 3,4-dimethylbenzylamide]",30,138 to 142
O=C(NC(=S)N1CCc2c([nH]c3ccccc23)C1c1ccc2c(c1)OCO2)c1ccccc1 (centres unmarked) [Example 38],379,207 to 208
"S=C(NCc1cccc2ccccc12)N1CCc2c([nH]c3ccccc23)[C@H]1c1ccc2c(c1)OCO2 [Example 39, (1R)-1-benzo[1,3]dioxol-5-yl-1,3,4,9-tetrahydro-β-carboline-2-carbothioic acid (naphthalen-1-yl-methyl)amide]",119,111 to 113
"S=C(NCc1ccc2c(c1)OCO2)N1CCc2c([nH]c3ccccc23)[C@H]1c1ccc2c(c1)OCO2 [Example 40, (1R)-1-benzo-[1,3]dioxol-5-yl-1,3,4,9-tetrahydro-β-carboline-2-carbothioic acid (benzo[1,3]dioxol-5-yl-methyl)amide]",56,97 to 100
"O=S(=O)(/C=C/c1ccccc1)N1CCc2c([nH]c3ccccc23)C1c1ccc2c(c1)OCO2 (stereo not drawn) [Example 41a, 1-benzo[1,3]dioxol-5-yl-2-(2-phenylethenesulfonyl)-2,3,4,9-tetrahydro-1H-β-carboline]",675,191 to 192
"O=S(=O)(/C=C/c1ccccc1)N1CCc2c([nH]c3ccccc23)[C@H]1c1ccc2c(c1)OCO2 [Example 41b, (1R)-1-benzo[1,3]dioxol-5-yl-2-(2-phenylethenesulfonyl)-2,3,4,9-tetrahydro-1H-β-carboline]",413,193 to 194
